Results from paper PMC12090182, “Repurposing of the RIPK1-Selective Benzo[1,4]oxazepin-4-one Scaffold for the Development of a Type III LIMK1/2 Inhibitor” (ACS Chemical Biology, 2025).

How the values were obtained:
Type in all cases: cell-based
Details in all cases: HEK-293T; 1 μM inhibitor, HEK293T cells
CDK3 = CDK3 (Homo sapiens, UniProt Q00526)
Description: (§1) For plate preparation, a transfection mix was prepared in white 384-well small-volume plates (Greiner, cat. no. 784075) by preplating 3 μL of 20 μL/mL FuGene HD (Promega, cat. no. E2311), diluted in an Opti-MEM medium (Gibco, cat. no. 11058-021). One μL of DNA from both DNA vector source plates of the K192 kit was added using an Echo 550 acoustic dispenser (Beckman Coulter). The mix was incubated for 30 min, and 6 μL of HEK293T cells in an Opti-MEM medium was added. The proteins were allowed to express for 20 h. After expression, Tracer K10 was added using the concentrations recommended in the K192 technical manual and a 1 μM inhibitor was added to every second well. […] Five μL of substrate solution was added to every well, and filtered luminescence was measured on a PHERAstar plate reader (BMG Labtech) equipped with a luminescence filter pair (450 nm BP filter (donor) and a 610 nm LP filter (acceptor)). For every kinase, occupancy was calculated and plotted using GraphPad Prism 10 (Table S5).

CDKL5 = CDKL5 (Homo sapiens, UniProt O76039)
Description: as §1

MAP3K11 = MAP3K11 (Homo sapiens, UniProt Q16584)
Description: as §1

JAK3 = JAK3 (Homo sapiens, UniProt P52333)
Description: as §1

PTK6 = PTK6 (Homo sapiens, UniProt Q13882)
Description: as §1

FES = FES (Homo sapiens, UniProt P07332)
Description: as §1

RON = RON (Homo sapiens, UniProt Q04912)
Description: as §1

TYRO3 = TYRO3 (Homo sapiens, UniProt Q06418)
Description: as §1

ITK = ITK (Homo sapiens, UniProt Q08881)
Description: as §1

FGFR2 = FGFR2 (Homo sapiens, UniProt P21802)
Description: as §1

NEK5 = NEK5 (Homo sapiens, UniProt Q6P3R8)
Description: as §1

MAPK6 = MAPK6 (Homo sapiens, UniProt Q16659)
Description: as §1

NEK3 = NEK3 (Homo sapiens, UniProt P51956)
Description: as §1

STK16 = STK16 (Homo sapiens, UniProt O75716)
Description: as §1

CDK7 = CDK7 (Homo sapiens, UniProt P50613)
Description: as §1

CDK20 = CDK20 (Homo sapiens, UniProt Q8IZL9)
Description: as §1

TLK1 = TLK1 (Homo sapiens, UniProt Q9UKI8)
Description: as §1

STK3 = STK3 (Homo sapiens, UniProt Q13188)
Description: as §1

MAP3K12 = MAP3K12 (Homo sapiens, UniProt Q12852)
Description: as §1

MAPK4 = MAPK4 (Homo sapiens, UniProt P31152)
Description: as §1

TIE1 = TIE1 (Homo sapiens, UniProt P35590)
Description: as §1

STK4 = STK4 (Homo sapiens, UniProt Q13043)
Description: as §1

RPS6KA2 = RPS6KA2 (Homo sapiens, UniProt Q15349)
Description: as §1

STK17B = STK17B (Homo sapiens, UniProt O94768)
Description: as §1

SLK = SLK (Homo sapiens, UniProt Q9H2G2)
Description: as §1

CDK6 = CDK6 (Homo sapiens, UniProt Q00534)
Description: as §1

FGFR4 = FGFR4 (Homo sapiens, UniProt P22455)
Description: as §1

CDK9 = CDK9 (Homo sapiens, UniProt P50750)
Description: as §1

MAPK9 = MAPK9 (Homo sapiens, UniProt P45984)
Description: as §1

IRAK3 = IRAK3 (Homo sapiens, UniProt Q9Y616)
Description: as §1

WEE2 = WEE2 (Homo sapiens, UniProt P0C1S8)
Description: as §1

EPHB1 = EPHB1 (Homo sapiens, UniProt P54762)
Description: as §1

LATS1 = LATS1 (Homo sapiens, UniProt O95835)
Description: as §1

NIM1K = NIM1K (Homo sapiens, UniProt Q8IY84)
Description: as §1

SIK3 FL = SIK3 FL (Homo sapiens, UniProt Q9Y2K2)
Description: as §1

DAPK2 = DAPK2 (Homo sapiens, UniProt Q9UIK4)
Description: as §1

MET = MET (Homo sapiens, UniProt P08581)
Description: as §1

FGFR2, sequence (P21802 22-821): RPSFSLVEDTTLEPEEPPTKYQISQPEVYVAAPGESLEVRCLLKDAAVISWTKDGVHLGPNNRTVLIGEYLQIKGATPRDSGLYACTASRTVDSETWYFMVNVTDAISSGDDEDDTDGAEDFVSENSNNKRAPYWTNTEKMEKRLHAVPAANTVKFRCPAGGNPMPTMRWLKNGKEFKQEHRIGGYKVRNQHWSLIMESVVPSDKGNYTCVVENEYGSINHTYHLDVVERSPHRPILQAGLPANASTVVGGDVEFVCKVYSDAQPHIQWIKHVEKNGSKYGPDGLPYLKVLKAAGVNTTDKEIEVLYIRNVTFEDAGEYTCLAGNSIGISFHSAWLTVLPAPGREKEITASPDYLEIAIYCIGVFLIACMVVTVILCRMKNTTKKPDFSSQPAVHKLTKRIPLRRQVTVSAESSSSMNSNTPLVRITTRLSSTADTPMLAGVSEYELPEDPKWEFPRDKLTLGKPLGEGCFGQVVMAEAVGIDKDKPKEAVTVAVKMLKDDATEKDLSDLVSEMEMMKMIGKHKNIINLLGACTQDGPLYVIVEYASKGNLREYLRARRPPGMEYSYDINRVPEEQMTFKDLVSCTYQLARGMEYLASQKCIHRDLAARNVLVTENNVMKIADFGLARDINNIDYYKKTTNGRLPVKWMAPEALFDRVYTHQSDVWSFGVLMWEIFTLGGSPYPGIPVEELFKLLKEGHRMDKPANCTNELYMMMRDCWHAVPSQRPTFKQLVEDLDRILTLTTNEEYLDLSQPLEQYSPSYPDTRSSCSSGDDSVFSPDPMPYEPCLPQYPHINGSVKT
MAPK6, sequence (Q16659 whole entry): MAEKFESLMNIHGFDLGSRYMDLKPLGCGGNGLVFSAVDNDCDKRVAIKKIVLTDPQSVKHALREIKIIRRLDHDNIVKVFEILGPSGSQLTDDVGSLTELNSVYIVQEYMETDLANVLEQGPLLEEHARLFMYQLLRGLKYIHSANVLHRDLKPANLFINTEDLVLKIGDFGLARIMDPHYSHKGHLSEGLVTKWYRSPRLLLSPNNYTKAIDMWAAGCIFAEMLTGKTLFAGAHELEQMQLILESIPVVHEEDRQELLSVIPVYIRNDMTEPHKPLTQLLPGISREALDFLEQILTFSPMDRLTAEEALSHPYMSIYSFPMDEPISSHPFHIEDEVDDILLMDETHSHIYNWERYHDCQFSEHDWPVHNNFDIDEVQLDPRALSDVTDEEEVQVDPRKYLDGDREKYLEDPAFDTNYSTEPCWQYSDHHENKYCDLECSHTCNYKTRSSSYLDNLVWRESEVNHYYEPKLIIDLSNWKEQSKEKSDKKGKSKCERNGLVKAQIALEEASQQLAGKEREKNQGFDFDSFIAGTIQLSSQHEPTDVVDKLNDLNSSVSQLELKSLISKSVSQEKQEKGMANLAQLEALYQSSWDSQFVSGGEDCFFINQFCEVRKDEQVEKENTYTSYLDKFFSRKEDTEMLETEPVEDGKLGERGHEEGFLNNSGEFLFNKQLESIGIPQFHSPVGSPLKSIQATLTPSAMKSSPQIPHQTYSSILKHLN
CDKL5, sequence (O76039 whole entry): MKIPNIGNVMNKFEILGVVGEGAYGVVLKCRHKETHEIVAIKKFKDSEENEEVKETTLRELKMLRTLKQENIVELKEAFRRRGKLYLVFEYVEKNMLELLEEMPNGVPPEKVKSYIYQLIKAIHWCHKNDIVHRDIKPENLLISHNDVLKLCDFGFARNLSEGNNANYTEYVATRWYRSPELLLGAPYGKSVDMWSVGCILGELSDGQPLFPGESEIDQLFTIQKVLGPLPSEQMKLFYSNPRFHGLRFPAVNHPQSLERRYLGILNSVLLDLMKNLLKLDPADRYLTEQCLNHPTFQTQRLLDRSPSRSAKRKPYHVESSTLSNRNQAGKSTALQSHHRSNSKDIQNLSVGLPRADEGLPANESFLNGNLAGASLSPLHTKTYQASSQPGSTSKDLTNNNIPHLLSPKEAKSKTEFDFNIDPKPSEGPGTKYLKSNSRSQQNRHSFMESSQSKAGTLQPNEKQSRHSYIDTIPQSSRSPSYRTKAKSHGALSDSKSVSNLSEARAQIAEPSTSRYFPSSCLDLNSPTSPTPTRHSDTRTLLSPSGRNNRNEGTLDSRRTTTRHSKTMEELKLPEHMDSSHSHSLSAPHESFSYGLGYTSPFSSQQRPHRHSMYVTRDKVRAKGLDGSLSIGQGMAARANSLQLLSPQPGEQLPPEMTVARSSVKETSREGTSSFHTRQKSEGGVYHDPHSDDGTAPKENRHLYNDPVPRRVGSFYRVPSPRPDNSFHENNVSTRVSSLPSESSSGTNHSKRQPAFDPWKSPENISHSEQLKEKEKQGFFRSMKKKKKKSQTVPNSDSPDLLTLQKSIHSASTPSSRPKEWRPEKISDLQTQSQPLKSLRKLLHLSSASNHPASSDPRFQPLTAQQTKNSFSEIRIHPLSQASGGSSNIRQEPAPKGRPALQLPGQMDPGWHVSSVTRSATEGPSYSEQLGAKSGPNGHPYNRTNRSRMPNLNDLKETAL
LATS1, sequence (O95835 whole entry): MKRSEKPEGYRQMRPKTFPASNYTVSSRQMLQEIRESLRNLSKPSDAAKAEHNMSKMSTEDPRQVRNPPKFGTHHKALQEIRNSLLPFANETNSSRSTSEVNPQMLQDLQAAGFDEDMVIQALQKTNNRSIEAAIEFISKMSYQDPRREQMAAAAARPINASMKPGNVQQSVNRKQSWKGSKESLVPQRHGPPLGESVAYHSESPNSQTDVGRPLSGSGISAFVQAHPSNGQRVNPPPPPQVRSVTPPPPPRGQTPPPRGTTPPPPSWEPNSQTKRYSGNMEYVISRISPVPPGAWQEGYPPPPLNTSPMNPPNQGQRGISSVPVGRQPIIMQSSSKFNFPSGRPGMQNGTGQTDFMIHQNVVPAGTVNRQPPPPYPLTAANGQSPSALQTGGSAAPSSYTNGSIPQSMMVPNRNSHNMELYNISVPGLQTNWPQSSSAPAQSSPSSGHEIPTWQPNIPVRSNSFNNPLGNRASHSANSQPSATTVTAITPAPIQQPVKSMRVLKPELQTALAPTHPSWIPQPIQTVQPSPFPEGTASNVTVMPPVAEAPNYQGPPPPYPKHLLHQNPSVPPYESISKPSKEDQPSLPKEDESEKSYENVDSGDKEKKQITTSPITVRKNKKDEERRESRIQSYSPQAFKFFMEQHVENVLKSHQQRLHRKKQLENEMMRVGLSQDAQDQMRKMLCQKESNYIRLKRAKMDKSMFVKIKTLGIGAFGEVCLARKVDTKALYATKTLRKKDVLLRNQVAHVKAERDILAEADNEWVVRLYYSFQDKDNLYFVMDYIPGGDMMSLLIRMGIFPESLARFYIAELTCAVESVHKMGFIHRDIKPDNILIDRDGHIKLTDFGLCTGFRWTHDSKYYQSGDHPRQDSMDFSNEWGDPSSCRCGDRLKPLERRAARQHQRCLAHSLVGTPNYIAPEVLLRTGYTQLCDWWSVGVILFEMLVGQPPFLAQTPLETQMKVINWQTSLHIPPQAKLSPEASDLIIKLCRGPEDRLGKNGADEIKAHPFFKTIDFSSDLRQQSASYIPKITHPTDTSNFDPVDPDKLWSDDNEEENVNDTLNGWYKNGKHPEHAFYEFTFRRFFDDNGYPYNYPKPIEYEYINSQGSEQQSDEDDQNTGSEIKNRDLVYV
SLK, sequence (Q9H2G2 whole entry): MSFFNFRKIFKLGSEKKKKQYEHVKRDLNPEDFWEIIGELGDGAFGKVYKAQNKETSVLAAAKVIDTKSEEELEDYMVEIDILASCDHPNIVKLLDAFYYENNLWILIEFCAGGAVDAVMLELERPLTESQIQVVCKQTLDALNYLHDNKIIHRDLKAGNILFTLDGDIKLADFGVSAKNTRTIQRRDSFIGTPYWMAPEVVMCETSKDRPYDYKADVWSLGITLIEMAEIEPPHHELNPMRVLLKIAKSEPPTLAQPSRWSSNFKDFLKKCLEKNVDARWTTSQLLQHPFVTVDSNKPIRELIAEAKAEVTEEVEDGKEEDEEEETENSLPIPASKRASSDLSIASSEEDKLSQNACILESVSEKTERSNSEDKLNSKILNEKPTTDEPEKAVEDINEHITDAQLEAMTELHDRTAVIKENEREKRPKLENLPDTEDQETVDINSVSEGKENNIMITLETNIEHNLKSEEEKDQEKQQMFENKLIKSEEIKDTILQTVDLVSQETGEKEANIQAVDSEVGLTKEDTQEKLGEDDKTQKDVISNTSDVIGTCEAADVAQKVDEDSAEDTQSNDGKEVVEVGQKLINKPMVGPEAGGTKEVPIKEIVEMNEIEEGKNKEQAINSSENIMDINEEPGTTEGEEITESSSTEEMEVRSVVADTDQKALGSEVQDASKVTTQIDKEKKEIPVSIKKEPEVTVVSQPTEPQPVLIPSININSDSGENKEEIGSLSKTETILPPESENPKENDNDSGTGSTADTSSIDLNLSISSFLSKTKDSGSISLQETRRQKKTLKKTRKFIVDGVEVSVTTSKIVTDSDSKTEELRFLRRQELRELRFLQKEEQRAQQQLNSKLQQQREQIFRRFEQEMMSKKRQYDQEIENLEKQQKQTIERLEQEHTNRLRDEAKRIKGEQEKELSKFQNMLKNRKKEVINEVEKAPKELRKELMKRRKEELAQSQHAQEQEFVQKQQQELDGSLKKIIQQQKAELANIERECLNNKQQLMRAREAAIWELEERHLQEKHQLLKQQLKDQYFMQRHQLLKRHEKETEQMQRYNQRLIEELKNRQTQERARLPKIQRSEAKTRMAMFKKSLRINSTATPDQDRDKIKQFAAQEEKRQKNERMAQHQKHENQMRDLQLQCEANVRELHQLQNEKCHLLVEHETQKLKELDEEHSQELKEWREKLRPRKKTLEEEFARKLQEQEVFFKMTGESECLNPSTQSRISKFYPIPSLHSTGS

CN1C(=O)[C@@H](N2CCc3c(nn(Cc4ccccc4)c3C(N)=O)C2=O)COc2cc(Cl)ccc21 [Compound 10, (S)-2-benzyl-6-(8-chloro-5-methyl-4-oxo-2,3,4,5-tetrahydrobenzo[b][1,4]oxazepin-3-yl)-7-oxo-4,5,6,7-tetrahydro-2H-pyrazolo[3,4-c]pyridine-3-carboxamide]
receptor occupancy at 1 µM (CDK3): -5.32% | receptor occupancy at 1 µM (CDKL5): 1.05% | receptor occupancy at 1 µM (MAP3K11): -27.3% | receptor occupancy at 1 µM (JAK3): 4.78% | receptor occupancy at 1 µM (PTK6): 2.55% | receptor occupancy at 1 µM (FES): 3.15% | receptor occupancy at 1 µM (RON): 0.288% | receptor occupancy at 1 µM (TYRO3): -9.33% | receptor occupancy at 1 µM (ITK): 2.24% | receptor occupancy at 1 µM (FGFR2): -6.21% | receptor occupancy at 1 µM (NEK5): -1.37% | receptor occupancy at 1 µM (MAPK6): -8.43% | receptor occupancy at 1 µM (NEK3): -12% | receptor occupancy at 1 µM (STK16): -1.63% | receptor occupancy at 1 µM (CDK7): -11.3% | receptor occupancy at 1 µM (CDK20): 0.735% | receptor occupancy at 1 µM (TLK1): 26.6% | receptor occupancy at 1 µM (STK3): -10.1% | receptor occupancy at 1 µM (MAP3K12): -2.26% | receptor occupancy at 1 µM (MAPK4): -10.7% | receptor occupancy at 1 µM (TIE1): -1.51% | receptor occupancy at 1 µM (STK4): -6.3% | receptor occupancy at 1 µM (RPS6KA2): -4.28% | receptor occupancy at 1 µM (STK17B): 8% | receptor occupancy at 1 µM (SLK): 19% | receptor occupancy at 1 µM (CDK6): -16.9% | receptor occupancy at 1 µM (FGFR4): 5% | receptor occupancy at 1 µM (CDK9): -4.57% | receptor occupancy at 1 µM (MAPK9): -2.07% | receptor occupancy at 1 µM (IRAK3): -5.37% | receptor occupancy at 1 µM (WEE2): -0.12% | receptor occupancy at 1 µM (EPHB1): 0.755% | receptor occupancy at 1 µM (LATS1): -16% | receptor occupancy at 1 µM (NIM1K): 5.36% | receptor occupancy at 1 µM (SIK3 FL): -5.87% | receptor occupancy at 1 µM (DAPK2): -5.62% | receptor occupancy at 1 µM (MET): 4.93%
